The values that follow come from patent US20090137580A1, “Fused Heterocyclic Derivatives and Use Thereof” (Takeda Pharmaceutical Company Limited, priority 2005, published 2009).

The test system of test [1] is Human umbilical vein endothelial cells (HUVEC). The test is described as follows: Vascular endothelial cell growth inhibitory test. The test is classed as cell-based. The conditions noted are these: Homo sapiens, 120 h, VEGF 120 ng/mL, culture 5 days, XTT reagent. As for the experimental part: Human umbilical vein endothelial cells (HUVEC, purchased from KURABO) were cultured in a gas incubator (37° C., CO2 5%) in a vascular endothelial cell medium (Invitrogen) containing 5% fetal calf serum and a basic fibroblast growth factor (2.5 ng/mL). To be specific, HUVEC suspended in the aforementioned vascular endothelial cell medium (Invitrogen) containing 5% fetal calf serum were seeded into a 96 well flat-bottom plate (50 μL, 3000 cells each well). After culturing overnight, various concentrations of test substance and the final concentration (120 ng/mL) of vascular endothelial growth factor (VEGF) were dissolved in a vascular endothelial cell medium (Invitrogen) containing 5% fetal calf serum and added to each well (50 μL). After culturing for 5 days, an XTT reagent (Wako Pure Chemical Industries, Ltd.) was added to each well (10 μL), and reacted in a gas incubator (37° C., CO2 5%) for 2-3 hr. The absorbance at 450 nm was measured by a microtiter plate reader, and the cell growth inhibitory activity was determined.
On the technique in general: Tetrazolium dyes change colour on reduction, which living cells bring about.

Test [2] concerns the target T1, PDGFRbeta Receptor Kinase (PDGFRbeta) (Homo sapiens, UniProt P09619).
T1 construct: PDGFRbeta intracellular domain protein (UPSTATE); purchased UPSTATE
The test is described as follows: Determination of PDGFRbeta receptor kinase (PDGFRbeta) inhibitory activity (alpha screen). To be noted: PDGFRbeta intracellular domain protein, 25 μM ATP buffer; read-out: IC50 value (PDGFRbeta kinase inhibition). It is filed as biochemical. The procedure: (§1) The test compound dissolved in dimethyl sulfoxide (DMSO) was diluted with a buffer (50 mM Tris-HCl, pH 7.5, 5 mM MgCl2, 5 mM MnCl2, 2 mM dithiothreitol, 0.01% Tween-20). A buffer (10 μl) containing 125 ng/ml PDGFRbeta intracellular domain protein (UPSTATE) and 250 ng/ml biotin-labeled polypeptide biotinyl-poly-Glu:Tyr (4:1) (CIS Bio International) was added to the compound solution (5 μl). At 5 min after mixing a kinase enzyme, the compound and a biotin-labeled polypeptide, a buffer (10 μl) containing 25 μM ATP was added to the obtained mixture, the mixture was allowed to react at 25° C. for 30 min. Then, 25 μl of a stop solution (100 mM EDTA·2 sodium salt, 62.5 mM HEPES buffer (pH 7.4), 250 mM NaCl, 0.1% bovine serum albumin, 10 μg/ml Streptavidin Donor beads: PerkinElmer for alpha screen assay, 10 μg/ml Anti-phosphotyrosine (P-Tyr-66) Acceptor beads: PerkinElmer for alpha screen assay) was added to quench the reaction. The reaction solution was stood at 25° C. for 16 hr, and the count was measured using a plate reader·Fusion™ (manufactured by PerkinElmer). The kinase inhibitory rate (%) of the test compound was calculated by the following formula.
(§2) Inhibitory rate(%)=(1−(count of test compound−blank)÷(control−blank))×100
(§3) wherein the count of the solution reacted without addition of the compound is “control” and the count of the solution without addition of the compound and ATP is “blank”.

In test [3] the target is T2, TIE2 Receptor Kinase (TIE2) (Homo sapiens, UniProt Q02763).
T2 construct: TIE2 intracellular domain protein (UPSTATE); purchased UPSTATE
T2 sequence (Q02763 770-1124 limits assumed): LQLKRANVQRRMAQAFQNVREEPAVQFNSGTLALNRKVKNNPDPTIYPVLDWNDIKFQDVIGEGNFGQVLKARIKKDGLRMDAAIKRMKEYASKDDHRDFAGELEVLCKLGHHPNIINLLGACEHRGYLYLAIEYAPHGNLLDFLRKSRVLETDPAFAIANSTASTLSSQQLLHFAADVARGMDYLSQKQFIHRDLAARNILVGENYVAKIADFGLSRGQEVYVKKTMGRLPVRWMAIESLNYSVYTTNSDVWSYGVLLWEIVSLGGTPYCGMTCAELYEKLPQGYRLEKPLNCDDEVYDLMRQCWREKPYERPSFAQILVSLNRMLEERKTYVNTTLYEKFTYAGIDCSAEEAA
In words: Determination of TIE2 receptor kinase (TIE2) inhibitory activity (alpha screen). It is filed as biochemical. To be noted: TIE2 intracellular domain protein, 5 μM ATP buffer; read-out: IC50 value (TIE2 kinase inhibition). The procedure:
as §1, with “containing 50” for “containing 125”, “ng/ml TIE2” for “ng/ml PDGFRbeta”, “containing 5” for “containing 25”, “for 10” for “for 30”
as §2, §3
Prism (Graphpad Software) according to the nonlinear-regression sigmoidal dose-response (variable slope) analysis method.

Test [4] deals with T3, PDGFR Alpha Receptor Kinase (PDGFRalpha) (Homo sapiens, UniProt P16234).
T3 construct: PDGFRalpha intracellular domain protein (UPSTATE); purchased UPSTATE
T3 sequence (P16234 550-1089 limits assumed): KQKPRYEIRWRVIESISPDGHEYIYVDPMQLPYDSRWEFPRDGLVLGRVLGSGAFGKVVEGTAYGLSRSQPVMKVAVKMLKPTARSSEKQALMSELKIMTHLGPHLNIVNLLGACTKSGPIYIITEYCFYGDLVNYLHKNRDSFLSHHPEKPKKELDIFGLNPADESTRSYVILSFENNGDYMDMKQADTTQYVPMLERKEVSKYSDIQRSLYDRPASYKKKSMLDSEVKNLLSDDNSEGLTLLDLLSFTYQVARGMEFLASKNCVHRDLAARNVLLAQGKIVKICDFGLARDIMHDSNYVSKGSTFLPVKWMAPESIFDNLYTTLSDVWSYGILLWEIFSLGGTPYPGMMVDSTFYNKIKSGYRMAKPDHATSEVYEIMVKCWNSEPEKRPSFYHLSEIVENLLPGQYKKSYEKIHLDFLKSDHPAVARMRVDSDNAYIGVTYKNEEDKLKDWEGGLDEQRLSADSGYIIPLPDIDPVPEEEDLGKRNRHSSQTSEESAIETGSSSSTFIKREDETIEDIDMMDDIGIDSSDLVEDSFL
The test is described as follows: Determination of PDGFR alpha receptor kinase (PDGFRalpha) inhibitory activity (alpha screen). The test is classed as biochemical. The conditions noted are these: PDGFRalpha intracellular domain protein, 25 μM ATP buffer; read-out: IC50 value (PDGFRalpha kinase inhibition). As for the experimental part: The test compound dissolved in dimethyl sulfoxide (DMSO) was diluted with a buffer (50 mM Tris-HCl, pH 7.5, 5 mM MgCl2, 5 mM MnCl2, 2 mM dithiothreitol, 0.01% Tween-20).
Acceptor beads: PerkinElmer for alpha screen assay) was added to quench the reaction. The reaction solution was stood at 25° C. for 16 hr, and the count was measured using a plate reader·Fusion™ (manufactured by PerkinElmer). The kinase inhibitory rate (%) of the test compound was calculated by the following formula.
as §2, §3

Some results are limits rather than exact numbers.

T1 sequence (P09619 554-1106 limits assumed): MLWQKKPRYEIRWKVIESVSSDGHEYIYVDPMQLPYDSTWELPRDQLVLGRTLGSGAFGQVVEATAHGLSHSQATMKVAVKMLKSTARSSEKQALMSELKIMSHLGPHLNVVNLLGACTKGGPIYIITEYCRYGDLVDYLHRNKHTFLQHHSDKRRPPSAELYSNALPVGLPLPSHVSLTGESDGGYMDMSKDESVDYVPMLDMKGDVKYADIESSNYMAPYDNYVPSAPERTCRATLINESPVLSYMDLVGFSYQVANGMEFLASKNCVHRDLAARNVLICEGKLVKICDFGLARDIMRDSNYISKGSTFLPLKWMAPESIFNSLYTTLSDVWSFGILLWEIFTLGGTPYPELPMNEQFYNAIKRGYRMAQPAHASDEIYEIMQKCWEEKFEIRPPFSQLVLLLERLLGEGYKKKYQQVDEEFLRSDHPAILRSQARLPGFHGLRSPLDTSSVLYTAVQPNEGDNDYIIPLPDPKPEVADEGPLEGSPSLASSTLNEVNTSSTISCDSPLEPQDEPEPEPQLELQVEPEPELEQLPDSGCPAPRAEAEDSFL

For the molecule `Cn1ccc2ncnc(Oc3ccc(NC(=O)Nc4cccc(C(F)(F)F)c4)c(Cl)c3)c21` [Example 15, N-{2-chloro-4-[(5-methyl-5H-pyrrolo[3,2-d]pyrimidin-4-yl)oxy]phenyl}-N′-[3-(trifluoromethyl)phenyl]urea], the half-maximal inhibitory concentration (IC50) (commonly the concentration that inhibits the measured activity by half) was 8.2 nM in test [1], at most 500 nM in test [2], at most 5 nM in test [3] and at most 500 nM in test [4].
Regarding `Cn1ccc2ncnc(Oc3ccc(NC(=O)Nc4cccc(OC(F)(F)F)c4)c(Cl)c3)c21` [Example 20, N-{2-chloro-4-[(5-methyl-5H-pyrrolo[3,2-d]pyrimidin-4-yl)oxy]phenyl}-N′-[3-(trifluoromethoxy)phenyl]urea], the IC50 in test [1] was 6.6 nM; in test [2], at most 500 nM; in test [3] it was at most 5 nM; in test [4] it was at most 500 nM.
As to `Cc1cc(Oc2ncnc3ccn(C)c23)ccc1NC(=O)Nc1cccc(C(F)(F)F)c1` [Example 41, N-{2-methyl-4-[(5-methyl-5H-pyrrolo[3,2-d]pyrimidin-4-yl)oxy]phenyl}-N′-[3-(trifluoromethyl)phenyl]urea], the IC50 was 19 nM in test [1], at most 500 nM in test [2], at most 5 nM in test [3] and at most 500 nM in test [4].
Consider `CCn1ccc2ncnc(Oc3ccc(NC(=O)Nc4cccc(C(F)(F)F)c4)c(Cl)c3)c21` [Example 47, N-{2-chloro-4-[(5-ethyl-5H-pyrrolo[3,2-d]pyrimidin-4-yl)oxy]phenyl}-N′-[3-(trifluoromethyl)phenyl]urea], for which the IC50 is 11 nM in test [1], at most 500 nM in test [2], at most 5 nM in test [3] and at most 500 nM in test [4].
